Data: patent US11840521B2, “Modulators of Mas-related G-protein receptor X4 and related products and methods” (Escient Pharmaceuticals, Inc., priority 2019, dated 2023)

Biological target: MRGPRX4 (Homo sapiens, UniProt Q96LA9)
Assay: MRGPR X4 antagonist activity, IP-One Gq HTRF assay in stably transfected HEK cells (versus agonist bilirubin, deoxycholic acid, conjugated bilirubin, urobilin, obeticholic acid or BAR502)
Assay type: cell-based
Design: expressed in transfected cells; host or cells: HEK cells, stably transfected
Details: versus 10 μM Bilirubin agonist; HEK cells expressing human MRGPR X4; read-out: MRGPR4 Antagonist Activity
Procedure: HEK cells stably transfected to express human MRGPR X4 were maintained in an incubator at 37° C. with 5% CO2 and grown in DMEM media with 10% fetal bovine serum (FBS) and 1% each of sodium pyruvate, Glutamax, penicillin/streptomycin, and Geneticin. HEK cells stably transfected to express mouse MRGPR A1 were maintained in the same incubator and grown in DMEM media with 10% FBS, 1% each of sodium pyruvate, Glutamax, penicillin/streptomycin, Geneticin, and 2.2 mg/mL Hygromycin.
Cells were plated in a 384-well assay plate at 20,000 cells per well in 12 μL of Opti-MEM and kept in an incubator overnight. On the day of the assay, compounds solubilized at 10 mM in DMSO were added as a 10-point curve (10 uM final top concentration with 1:3 serial dilutions) using a Tecan D300E digital dispenser. […] Final concentrations of DMSO were kept consistent across the plate. Plates were incubated in the dark for 1 h at 37° C. and then for 30 minutes at room temperature. IP-1 standards and HTRF detection reagents were added according to the IP-One—Gq Kit purchased from Cisbio (part number 62IPAPEJ) and incubated in the dark for 1 h at room temperature. The plate was read on a Molecular Devices SpectraMax iD5 plate reader. The HTRF ratio was calculated from the raw data and graphed using GraphPad Prism to calculate an IC50 value for each compound.

Chain of MRGPRX4 (Q96LA9 whole entry): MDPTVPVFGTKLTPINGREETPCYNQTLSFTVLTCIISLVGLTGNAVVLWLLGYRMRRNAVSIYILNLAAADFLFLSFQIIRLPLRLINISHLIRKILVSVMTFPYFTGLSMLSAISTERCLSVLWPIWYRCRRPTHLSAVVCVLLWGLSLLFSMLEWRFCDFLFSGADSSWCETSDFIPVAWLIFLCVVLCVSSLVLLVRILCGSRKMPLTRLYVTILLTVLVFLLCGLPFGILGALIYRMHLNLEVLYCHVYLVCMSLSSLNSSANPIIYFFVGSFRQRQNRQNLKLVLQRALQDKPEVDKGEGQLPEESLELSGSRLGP

Compound	IC50 [nM]
O=C(O)c1cccc(COCc2ccc(Cl)cc2Cl)c1 [Compound 3-8]	1000 to 2500
O=C(O)c1cccc(COc2ccc(Cl)cc2F)c1 [Compound 1-23]	500 to 1000
CC(=O)c1ccc(OCc2cccc(C(=O)O)c2)cc1 [Compound 1-54]	> 2500
O=C(O)c1cccc(COc2ccc(C(F)(F)F)c(Cl)c2)n1 [Compound 1-133]	< 100
O=C(O)c1cccc(COc2cccc(C(F)(F)F)c2Cl)c1 [Compound 1-79]	100 to 500
Cc1cc(N2CCCC2)ccc1OCc1cccc(C(=O)O)c1F [Compound 4-23]	500 to 1000
Cc1cc(OCc2cccc(C(=O)O)c2)ccc1OC(F)(F)F [Compound 1-139]	> 2500
O=C(O)c1cccc(COc2ccc(Cl)cc2C(F)(F)F)c1 [Compound 1-28]	100 to 500
CN(C)CCNC(=O)c1cccc(COc2ccc(C(F)(F)F)cc2Cl)c1 [Compound 52-17]	500 to 1000
CNC(=O)c1ccc(OCc2cccc(C(=O)O)c2)cc1 [Compound 1-152]	1000 to 2500
O=C(O)c1cccc(COc2ccc(C(F)(F)F)c(F)c2)c1 [Compound 1-112]	< 100
COc1cc(COc2ccc(Cl)cc2Cl)cc(C(=O)O)c1 [Compound 4-5]	< 100
O=C(O)c1cccc(Oc2ccc(Cl)cc2Cl)c1 [Compound 16-1, 3-(2,4-dichlorophenoxy)benzoic acid]	1000 to 2500
Cc1c(OCc2cccc(C(=O)O)c2)ccc2c1OCC2=O [Compound 1-154]	100 to 500
O=C(O)c1c(F)ccc(COc2ccc(C(F)(F)F)cc2Cl)c1F [Compound 1-136]	< 100
COc1ccc(C(=O)O)cc1COc1ccc(Cl)cc1Cl [Compound 1-27]	> 2500
COC(=O)c1cccc(COc2ccc(Cl)cc2Cl)c1 [Compound 1-4]	> 2500
O=C(O)c1cccc(COc2ccc(-n3cccc3)cc2Cl)c1F [Compound 4-25]	100 to 500
O=C(O)c1nc(COc2ccc(C(F)(F)F)c(Cl)c2)ccc1F [Compound 4-19]	< 100
Cc1c(COc2ccc(Cl)cc2Cl)cccc1C(=O)O [Compound 4-8]	100 to 500
O=C(O)c1cccc(COc2cccc(-c3ccc(F)cc3)c2)c1 [Compound 1-69]	500 to 1000
Cc1cc(OCc2cccc(C(=O)O)c2)cc(C)c1Cl [Compound 1-53]	500 to 1000

Compound	IC50 [nM]
O=C(O)c1cccc(COc2ccc(OC(F)(F)F)cc2)c1 [Compound 1-47]	100 to 500
O=C(O)c1cccc(COc2cccc(C(F)F)c2)c1 [Compound 1-100]	> 2500
CC(Oc1ccc(C(F)(F)F)cc1Cl)c1cccc(C(=O)O)c1 (stereo not shown) [Compound 62-1, 3-(1-(2-chloro-4-(trifluoromethyl)phenoxy)ethyl)benzoic acid]	< 100
FC(F)(F)c1ccc(OCc2ccc(-c3nnn[nH]3)cc2)c(Cl)c1 [Compound 17-12]	500 to 1000
Cc1cc(C(F)(F)F)ccc1OCc1cccc(C(=O)O)c1 [Compound 1-16, 3-((2-methyl-4-(trifluoromethyl)phenoxy)methyl)benzoic acid]	< 100
O=C(O)c1cccc(COc2ncc(C(F)(F)F)cc2Cl)c1 [Compound 35-1, 3-(((3-chloro-5-(trifluoromethyl)pyridin-2-yl)oxy)methyl)benzoic acid]	100 to 500
COc1cc(COc2ccc(C(F)(F)F)cc2Cl)cc(C(=O)O)c1 [Compound 2-2]	< 100
COc1cc(C(=O)O)ccc1OCc1ccc(Cl)cc1 [Compound 1-20]	1000 to 2500
O=C(O)c1cccc(COc2ccccc2C(F)(F)F)c1 [Compound 1-141]	1000 to 2500
O=C(c1cccc(COc2ccc(C(F)(F)F)cc2Cl)c1)N1CC(O)C1 [Compound 52-18]	500 to 1000
O=C(c1ccc(COc2ccc(C(F)(F)F)cc2Cl)cc1)N1CC2(COC2)C1 [Compound 52-2]	> 2500
C[C@@H](O)[C@H](NC(=O)c1cccc(COc2ccc(C(F)(F)F)cc2Cl)c1)C(=O)O [Compound 54-8]	500 to 1000
Cc1cc(COc2ccc(C(F)(F)F)c(Cl)c2)cc(C(=O)O)c1 [Compound 4-17]	< 100
CNC(=O)CNC(=O)c1cccc(COc2ccc(C(F)(F)F)cc2Cl)c1 [Compound 52-27]	500 to 1000
FC(F)(F)c1ccc(OCc2cccc(-c3cnc[nH]3)c2)c(Cl)c1 [Compound 47-1, 5-(3-((2-chloro-4-(trifluoromethyl)phenoxy)methyl)phenyl)-1H-imidazole]	500 to 1000
O=C(O)c1cccc(COc2cccc3ccccc23)c1 [Compound 1-49]	500 to 1000
Cc1cc(F)c(F)cc1OCc1cccc(C(=O)O)c1 [Compound 1-71]	500 to 1000
O=C(O)c1cccc(COc2ccc3ccoc3c2)c1 [Compound 1-128]	500 to 1000
O=C(O)c1cccc(COc2cccc(Br)c2Cl)c1 [Compound 1-142]	100 to 500
COC(=O)c1cncc(COc2ccc(Cl)cc2Cl)n1 [Compound 1-9]	1000 to 2500
O=C(O)c1cccc(COc2ccc(Cl)cc2)c1 [Compound 1-21]	100 to 500
O=C(O)c1cccc(COc2ccc(C(F)(F)F)cc2F)c1 [Compound 1-64]	< 100

Compound	IC50 [nM]
Cc1cc(C(F)(F)F)ccc1OCc1cccc(C(=O)O)n1 [Compound 1-127]	< 100
O=C(O)c1cccc(COc2ccc(Cl)c(F)c2)c1 [Compound 1-59]	< 100
O=C(O)c1cccc(COc2ccc3c(c2)CCC3)c1 [Compound 1-42]	1000 to 2500
CCOC(=O)c1cccc(COc2ccc(C(F)(F)F)cc2Cl)n1 [Compound 56-2]	< 100
O=C(O)c1cccc(COc2ccc3occc3c2)c1 [Compound 1-131]	100 to 500
O=C(O)c1cccc(COc2ccc(Cl)cc2Cl)c1Cl [Compound 4-9]	< 100
O=C(O)c1cncc(COc2ccc(Cl)cc2Cl)n1 [Compound 1-116]	500 to 1000
FC(F)(F)Oc1ccc(OCc2cccc(-c3nnn[nH]3)c2)c(Cl)c1 [Compound 17-8]	< 100
O=C(O)c1cccc(COc2ccccc2Cl)c1 [Compound 1-22]	> 2500
COC(=O)c1cccc(COc2ccc(C(F)(F)F)cc2Cl)n1 [Compound 1-11]	< 100
O=C(O)c1cccc(COc2ccc(Cl)cc2C(F)(F)F)c1F [Compound 1-62]	< 100
O=C(O)c1cc(Br)cc(COc2ccc(C(F)(F)F)cc2Cl)n1 [Compound 9-1, 4-bromo-6-((2-chloro-4-(trifluoromethyl)phenoxy)methyl)picolinic acid]	< 100
O=C(O)c1cccc(COc2ccc(C(F)(F)F)c(Cl)c2)c1 [Compound 1-118]	< 100
O=C(O)c1cc(COc2ccc(C(F)(F)F)cc2Cl)cc(C2CC2)c1 [Compound 11-1, 3-((2-chloro-4-(trifluoromethyl)phenoxy)methyl)-5-cyclopropylbenzoic acid]	< 100
Fc1cc(OCc2cccc(-c3nnn[nH]3)c2)ccc1C(F)(F)F [Compound 17-9]	< 100
c1cc(COc2ccc3ccccc3c2)cc(-c2nnn[nH]2)c1 [Compound 17-5]	< 100
O=C(O)c1cccc(COc2cc3ccccc3cc2Cl)c1 [Compound 1-130]	100 to 500
O=C(O)c1cccc(COc2ccc(Br)cc2)c1 [Compound 1-110]	100 to 500
O=C(O)c1cccc(COc2ccc(Cl)c(Cl)c2)c1 [Compound 3-6]	100 to 500
FC(F)(F)c1cc(Cl)ccc1OCc1cccc(-c2nnn[nH]2)c1 [Compound 17-3]	100 to 500
